In patent publication US20090018111A1, “Novel Antimicrobial Medicament” (priority 2004, published 2009):
Read-outs that look alike come from different tables or passages of the source.

Tests used:
Experiment in all cases: Sensitivity test (agar dilution), clinical isolate
B. cepacia 3138 = type: cell-based, Burkholderia cepacia
In short: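 Agar dilution per Japan Chemotherapeutic Society standard on Mueller Hinton agar with twofold serial dilutions of single drugs or mixed-ratio combinations. Overnight 37 °C cultures suspended in BSG at about 10^6 CFU/ml; about 5 μl spotted per plate.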

P. aeruginosa 12789 = type: cell-based, Pseudomonas aeruginosa
Experimental: (§1) In addition, the antibacterial activities were tested against strains which are comparatively less sensitive to β-lactam compounds, namely clinically isolated 13 strains of Acinetobacter calcoaceticus and Acinetobacter lwoffi, clinically isolated 11 strains of Serratia marcescens, clinically isolated 12 strains of Burkholderia cepacia, and clinically isolated 15 strains of Pseudomonas aeruginosa.
(§2) According to the standard method of Japan Chemotherapeutic Society (Chemotherapy, vol. […], p 76-79 (1981)) the test was carried out using the agar dilution method. After dissolving test samples in distilled water, agar medium containing the test samples was prepared in such a manner that the final concentration became twice serial dilution by pouring serially diluted combination drug solution or a single drug solution into agar medium. As agar medium was used Mueller Hinton Agar medium (MHA). Then, each strain was cultivated over night at 37° C. in an incubator and suspended in buffered saline solution with gelatin (BSG) in the concentration of about 10^6 CFU/ml. The suspension (about 5 μl) containing test strains was inoculated to the medium containing the test samples by Micro Planter.
(§3) Each drug was weighed, and dissolved in distilled water to give a test sample. When the drugs are used in combination, two kinds of solution containing each drug were mixed so as to be various ratio of concentration to give a mixed solution. When the sample is subjected to sensitivity test, this mixed solution was diluted by twice serial dilution method.
(§4) Furthermore, when the drug is solely used, each test sample was used as it is, and diluted by twice serial dilution method from the maximum concentration to the minimum concentration.

P. aeruginosa 12790 = type: cell-based, Pseudomonas aeruginosa; settings: read-out: MIC
Experimental: as §1, §2, §3, §4

P. aeruginosa 13224 = type: cell-based, Pseudomonas aeruginosa
Experimental: as §1, §2, §3, §4

P. aeruginosa 13245 = type: cell-based, Pseudomonas aeruginosa
Experimental: as §1, §2, §3, §4

P. aeruginosa 13250 = type: cell-based, Pseudomonas aeruginosa
Experimental: as §1, §2, §3, §4

P. aeruginosa 13269 = type: cell-based, Pseudomonas aeruginosa
Experimental: as §1, §2, §3, §4

P. aeruginosa 13272 = type: cell-based, Pseudomonas aeruginosa
Experimental: as §1, §2, §3, §4

P. aeruginosa 13280 = type: cell-based, Pseudomonas aeruginosa
Experimental: as §1, §2, §3, §4

P. aeruginosa 13285 = type: cell-based, Pseudomonas aeruginosa
Experimental: as §1, §2, §3, §4

P. aeruginosa 15019 = type: cell-based, Pseudomonas aeruginosa
Experimental: as §1, §2, §3, §4

P. aeruginosa 15032 = type: cell-based, Pseudomonas aeruginosa
Experimental: as §1, §2, §3, §4

P. aeruginosa 15036 = type: cell-based, Pseudomonas aeruginosa
Experimental: as §1, §2, §3, §4

P. aeruginosa 15039 = type: cell-based, Pseudomonas aeruginosa
Experimental: as §1, §2, §3, §4

P. aeruginosa 15040 = type: cell-based, Pseudomonas aeruginosa
Experimental: as §1, §2, §3, §4

## C[C@H]1C=C(c2csc(SC3=C(C(=O)O)N4C(=O)[C@H]([C@@H](C)O)[C@H]4[C@H]3C)n2)CN1 [SM, (4R,5S,6S)-6-[(1R)-1-Hydroxyethyl]-4-methyl-3-({4-[(5S)-5-methyl-2,5-dihydro-1H-pyrrol-3-yl]-1,3-thiazol-2-yl}sulfanyl)-7-oxo-1-azabicyclo[3.2.0]hept-2-ene-2-carboxylic acid]
B. cepacia 3138; Burkholderia cepacia, 3138, Concomitant (ME:SM = 1:1)
  MIC: 1 µg/mL
B. cepacia 3138; Burkholderia cepacia, 3138, Concomitant (ME:SM = 1:2)
  MIC: 2 µg/mL
B. cepacia 3138; Burkholderia cepacia, 3138, Concomitant (ME:SM = 1:4)
  MIC: 8 µg/mL
B. cepacia 3138; Burkholderia cepacia, 3138, Concomitant (ME:SM = 2:1)
  MIC: 1 µg/mL
B. cepacia 3138; Burkholderia cepacia, 3138, alone
  MIC: 8 µg/mL
P. aeruginosa 12789; Pseudomonas aeruginosa, 12789, Concomitant (ME:SM = 1:1)
  MIC: 0.5 µg/mL
P. aeruginosa 12789; Pseudomonas aeruginosa, 12789, Concomitant (ME:SM = 1:2)
  MIC: 1 µg/mL
P. aeruginosa 12789; Pseudomonas aeruginosa, 12789, Concomitant (ME:SM = 1:4)
  MIC: 2 µg/mL
P. aeruginosa 12789; Pseudomonas aeruginosa, 12789, Concomitant (ME:SM = 2:1)
  MIC: 0.25 µg/mL
P. aeruginosa 12789; Pseudomonas aeruginosa, 12789, alone
  MIC: 8 µg/mL
P. aeruginosa 12790; Pseudomonas aeruginosa, 12790, Concomitant (ME:SM = 1:1)
  MIC: 0.063 µg/mL
P. aeruginosa 12790; Pseudomonas aeruginosa, 12790, Concomitant (ME:SM = 1:2)
  MIC: 0.25 µg/mL
P. aeruginosa 12790; Pseudomonas aeruginosa, 12790, Concomitant (ME:SM = 1:4)
  MIC: 0.25 µg/mL
P. aeruginosa 12790; Pseudomonas aeruginosa, 12790, Concomitant (ME:SM = 2:1)
  MIC: 0.016 µg/mL
P. aeruginosa 12790; Pseudomonas aeruginosa, 12790, alone
  MIC: 4 µg/mL
P. aeruginosa 13224; Pseudomonas aeruginosa, 13224, Concomitant (ME:SM = 1:1)
  MIC: 4 µg/mL
P. aeruginosa 13224; Pseudomonas aeruginosa, 13224, Concomitant (ME:SM = 1:2)
  MIC: 4 µg/mL
P. aeruginosa 13224; Pseudomonas aeruginosa, 13224, Concomitant (ME:SM = 1:4)
  MIC: 8 µg/mL
P. aeruginosa 13224; Pseudomonas aeruginosa, 13224, Concomitant (ME:SM = 2:1)
  MIC: 2 µg/mL
P. aeruginosa 13224; Pseudomonas aeruginosa, 13224, alone
  MIC: 16 µg/mL
P. aeruginosa 13245; Pseudomonas aeruginosa, 13245, Concomitant (ME:SM = 1:1)
  MIC: 2 µg/mL
P. aeruginosa 13245; Pseudomonas aeruginosa, 13245, Concomitant (ME:SM = 1:2)
  MIC: 2 µg/mL
P. aeruginosa 13245; Pseudomonas aeruginosa, 13245, Concomitant (ME:SM = 1:4)
  MIC: 8 µg/mL
P. aeruginosa 13245; Pseudomonas aeruginosa, 13245, Concomitant (ME:SM = 2:1)
  MIC: 1 µg/mL
P. aeruginosa 13245; Pseudomonas aeruginosa, 13245, alone
  MIC: 16 µg/mL
P. aeruginosa 13250; Pseudomonas aeruginosa, 13250, Concomitant (ME:SM = 1:1)
  MIC: 0.5 µg/mL
P. aeruginosa 13250; Pseudomonas aeruginosa, 13250, Concomitant (ME:SM = 1:2)
  MIC: 0.5 µg/mL
P. aeruginosa 13250; Pseudomonas aeruginosa, 13250, Concomitant (ME:SM = 1:4)
  MIC: 2 µg/mL
P. aeruginosa 13250; Pseudomonas aeruginosa, 13250, Concomitant (ME:SM = 2:1)
  MIC: 0.25 µg/mL
P. aeruginosa 13250; Pseudomonas aeruginosa, 13250, alone
  MIC: 8 µg/mL
P. aeruginosa 13269; Pseudomonas aeruginosa, 13269, Concomitant (ME:SM = 1:1)
  MIC: 4 µg/mL
P. aeruginosa 13269; Pseudomonas aeruginosa, 13269, Concomitant (ME:SM = 1:2)
  MIC: 4 µg/mL
P. aeruginosa 13269; Pseudomonas aeruginosa, 13269, Concomitant (ME:SM = 1:4)
  MIC: 8 µg/mL
P. aeruginosa 13269; Pseudomonas aeruginosa, 13269, Concomitant (ME:SM = 2:1)
  MIC: 2 µg/mL
P. aeruginosa 13269; Pseudomonas aeruginosa, 13269, alone
  MIC: 16 µg/mL
P. aeruginosa 13272; Pseudomonas aeruginosa, 13272, Concomitant (ME:SM = 1:1)
  MIC: 4 µg/mL
P. aeruginosa 13272; Pseudomonas aeruginosa, 13272, Concomitant (ME:SM = 1:2)
  MIC: 4 µg/mL
P. aeruginosa 13272; Pseudomonas aeruginosa, 13272, Concomitant (ME:SM = 1:4)
  MIC: 8 µg/mL
P. aeruginosa 13272; Pseudomonas aeruginosa, 13272, Concomitant (ME:SM = 2:1)
  MIC: 2 µg/mL
P. aeruginosa 13272; Pseudomonas aeruginosa, 13272, alone
  MIC: 16 µg/mL
P. aeruginosa 13280; Pseudomonas aeruginosa, 13280, Concomitant (ME:SM = 1:1)
  MIC: 4 µg/mL
P. aeruginosa 13280; Pseudomonas aeruginosa, 13280, Concomitant (ME:SM = 1:2)
  MIC: 8 µg/mL
P. aeruginosa 13280; Pseudomonas aeruginosa, 13280, Concomitant (ME:SM = 1:4)
  MIC: 16 µg/mL
P. aeruginosa 13280; Pseudomonas aeruginosa, 13280, Concomitant (ME:SM = 2:1)
  MIC: 4 µg/mL
P. aeruginosa 13280; Pseudomonas aeruginosa, 13280, alone
  MIC: 32 µg/mL
P. aeruginosa 13285; Pseudomonas aeruginosa, 13285, Concomitant (ME:SM = 1:1)
  MIC: 4 µg/mL
P. aeruginosa 13285; Pseudomonas aeruginosa, 13285, Concomitant (ME:SM = 1:2)
  MIC: 8 µg/mL
P. aeruginosa 13285; Pseudomonas aeruginosa, 13285, Concomitant (ME:SM = 1:4)
  MIC: 16 µg/mL
P. aeruginosa 13285; Pseudomonas aeruginosa, 13285, Concomitant (ME:SM = 2:1)
  MIC: 2 µg/mL
P. aeruginosa 13285; Pseudomonas aeruginosa, 13285, alone
  MIC: 32 µg/mL
P. aeruginosa 15019; Pseudomonas aeruginosa, 15019, Concomitant (ME:SM = 1:1)
  MIC: 4 µg/mL
P. aeruginosa 15019; Pseudomonas aeruginosa, 15019, Concomitant (ME:SM = 1:2)
  MIC: 8 µg/mL
P. aeruginosa 15019; Pseudomonas aeruginosa, 15019, Concomitant (ME:SM = 1:4)
  MIC: 8 µg/mL
P. aeruginosa 15019; Pseudomonas aeruginosa, 15019, Concomitant (ME:SM = 2:1)
  MIC: 2 µg/mL
P. aeruginosa 15019; Pseudomonas aeruginosa, 15019, alone
  MIC: 16 µg/mL
P. aeruginosa 15032; Pseudomonas aeruginosa, 15032, Concomitant (ME:SM = 1:1)
  MIC: 2 µg/mL
P. aeruginosa 15032; Pseudomonas aeruginosa, 15032, Concomitant (ME:SM = 1:2)
  MIC: 2 µg/mL
P. aeruginosa 15032; Pseudomonas aeruginosa, 15032, Concomitant (ME:SM = 1:4)
  MIC: 8 µg/mL
P. aeruginosa 15032; Pseudomonas aeruginosa, 15032, Concomitant (ME:SM = 2:1)
  MIC: 1 µg/mL
P. aeruginosa 15032; Pseudomonas aeruginosa, 15032, alone
  MIC: 8 µg/mL
P. aeruginosa 15036; Pseudomonas aeruginosa, 15036, Concomitant (ME:SM = 1:1)
  MIC: 2 µg/mL
P. aeruginosa 15036; Pseudomonas aeruginosa, 15036, Concomitant (ME:SM = 1:2)
  MIC: 2 µg/mL
P. aeruginosa 15036; Pseudomonas aeruginosa, 15036, Concomitant (ME:SM = 1:4)
  MIC: 8 µg/mL
P. aeruginosa 15036; Pseudomonas aeruginosa, 15036, Concomitant (ME:SM = 2:1)
  MIC: 1 µg/mL
P. aeruginosa 15036; Pseudomonas aeruginosa, 15036, alone
  MIC: 8 µg/mL
P. aeruginosa 15039; Pseudomonas aeruginosa, 15039, Concomitant (ME:SM = 1:1)
  MIC: 8 µg/mL
P. aeruginosa 15039; Pseudomonas aeruginosa, 15039, Concomitant (ME:SM = 1:2)
  MIC: 16 µg/mL
P. aeruginosa 15039; Pseudomonas aeruginosa, 15039, Concomitant (ME:SM = 1:4)
  MIC: 16 µg/mL
P. aeruginosa 15039; Pseudomonas aeruginosa, 15039, Concomitant (ME:SM = 2:1)
  MIC: 4 µg/mL
P. aeruginosa 15039; Pseudomonas aeruginosa, 15039, alone
  MIC: 32 µg/mL
P. aeruginosa 15040; Pseudomonas aeruginosa, 15040, Concomitant (ME:SM = 1:1)
  MIC: 4 µg/mL
P. aeruginosa 15040; Pseudomonas aeruginosa, 15040, Concomitant (ME:SM = 1:2)
  MIC: 4 µg/mL
P. aeruginosa 15040; Pseudomonas aeruginosa, 15040, Concomitant (ME:SM = 1:4)
  MIC: 8 µg/mL
P. aeruginosa 15040; Pseudomonas aeruginosa, 15040, Concomitant (ME:SM = 2:1)
  MIC: 2 µg/mL
P. aeruginosa 15040; Pseudomonas aeruginosa, 15040, alone
  MIC: 16 µg/mL
